Holding throughout (format): cell-based, mouse
Series [1] has as its system p65 transfected RAW 264.7 cells. Description: RANKL-induced osteoclastogenesis after transfection of p65 plasmid. As to conditions: 5 mM calebin A, 5 nM RANKL, 5 days. On the procedure:
To determine the role of NF-κB/p65 expression on calebin A-induced inhibition osteoclastogenesis, RAW 264.7 cells (5×10^5 cells/well) were plated in 6-well plates and transiently transfected by the calcium phosphate method with pNF-κB ([…]) and control plasmid pCMVFLAG1 DNA for 24 h. The medium was then replaced, and the cells were treated with RANKL (5 nM) and or calebin A (5 mM) for 5 days. All cells were subjected to TRAP staining using the leukocyte acid phosphatase kit.

The subject of a further series is ERK1/2 phosphorylation. The series is described as follows: Western blot for phospho-ERK1/2. The following applies: calebin A pretreatment 8 h, RANKL 10 nM. Here is the method: (§1) To determine protein expression levels, the cytoplasmic and whole cell extracts were prepared and were fractionated using 10% sodium dodecyl sulphate polyacrylamide gel electrophoresis (SDSPAGE). After electrophoresis, the proteins were transferred to nitrocellulose membranes, blotted with the relevant antibodies, and detected with enhanced chemiluminescence reagent (GE Healthcare, Piscataway, N.J.).
On the technique in general: In western blotting, separated proteins are transferred to a membrane and probed.

The subject of series [2] is RAW 264.7 cells. The series is described as follows: Osteoclast differentiation assay, RANKL-induced (TRAP staining). Here is the method: (§2) To determine the effects of calebin A on RANKL-induced osteoclast differentiation, the RAW264.7 cells were cultured at a density of 5×10^3 cells per well in 24-well plates and allowed to adhere overnight. The medium was then replaced and the cells were treated with 5 nM RANKL for 5 days. After the incubation, the cells were subjected to TRAP staining using leukocyte acid phosphatase kit. For co-culture experiments with cancer cells, RAW 264.7 cells were seeded at a density of 5×10^3 cells per well and allowed to adhere overnight. U266 or MDA-MB-231 cells, at a density of 1×10^3 cells per well, were added to the RAW 264.7 cells the following day. The wells were treated with calebin A, and co-cultured for 5 days before being subjected to TRAP staining. For conditioned medium experiments, RAW 264.7 cells were seeded at a density of 5×10^3 cells per well and allowed to adhere overnight. The following day, the medium was replaced with ⅘ of RAW 264.7 medium (DMEM/F12) plus ⅕ of conditioned medium from MDA-MB-231 or U266 cells. For that procedure, the supernatant of cultured cancer cells that had been centrifuged was used. Finally, the RAW264.7 cells were cultured for 5 days and subjected to TRAP staining and an electrophoretic mobility shift assay (EMSA).

The test system of series [3] is RANK and c-Fms expression. Description: Immunoblot for M-CSF-induced osteoclast differentiation markers. The following applies: 50 mM calebin A 8 h, 20 ng/mL M-CSF 24 h. Here is the method: as §1
Further to examine the possible role of calebin A in the regulation of osteoclast differentiation in early stage, the RAW 264.7 cells were pre-treated with calebin A and induced by M-CSF for 24 h.

In series [4] the test system is RAW 264.7 cells incubated in the presence of MDA-MB-231 cells. The series is described as follows: Osteoclastogenesis induced by co-culture with MDA-MB-231 breast cancer cells (TRAP staining). The following applies: calebin A 5 mM, co-incubated 5 days. On the procedure: as §2
The subject of another series is IκBα. Description: Western blot for IκBα degradation and phosphorylation. On the procedure: as §1
For series [5], the system named is RAW 264.7 cells. Description: Cell proliferation assay (MTT). As to conditions: 1, 2 or 5 mM calebin A, days 1, 3 and 5. On the procedure:
The effects of calebin A on the proliferation of RAW 264.7 cells were determined by measuring mitochondrial dehydrogenase activity with 3-[4,5-dimethylthiazol-2-yl]-2,5-diphenyl tetrazolium bromide (MTT) as the substrate as described in B. Sung, S. Prasad, V. R. Yadav, S. C. Gupta, S. Reuter, N. Yamamoto, A. Murakami, B. B. Aggarwal, PloS One 8 (2013) e64118. In brief, 3000 RAW264.7 cells (in 0.1 ml media) per well were incubated with various concentrations of calebin A, in triplicate, in 96-well plates at 37° C. for 1, 3, or 5 days. At each interval, MTT solution was added to each well, and the plates were incubated for 2 h at 37° C. An extraction buffer (100 mM) comprised of 20% sodium dodecyl sulphate (SDS) and 50% dimethyl formamide was added, and the cells were incubated overnight at 37° C. to dissolve the formazan formed during the reaction. The absorbance of the coloured product was then measured at 570 nm using a 96-well multiscanner (MRX Revelation, Dynex Technologies, Chantilly, Va.).

Series [6] concerns NFATc1, TRAP, cathepsin K and calcitonin R expression. The series is described as follows: Western blot for RANKL-induced osteoclastogenesis-related marker expression. Here is the method: as §1
NFATc1 plays a major role in the regulation of osteoclastogenesis. […] Basically, activation and nuclear translocation of NFATc1 and osteoclast differentiation are mediated by the expression of large number of marker genes, including TRAP, cathepsin K and calcitonin R, regulated by NFATc1. These genes are activated by the RANKL-mediated signalling pathway. Therefore, the effect of calebin A on the expression of RANKL-induced osteoclastogenesis related marker genes, were also examined.

Series [7] has as its system RAW 264.7 cells incubated in the presence of U266 cells. Description: Osteoclastogenesis induced by co-culture with U266 multiple myeloma cells (TRAP staining). As to conditions: calebin A 5 mM, co-incubated 5 days. On the procedure: as §2
The next series deals with NF-κB activation. The series is described as follows: Electrophoretic mobility shift assay for NFκB. On the procedure: To assess NFκB activation in the nuclear extracts, EMSA was carried out using the procedure described by Y. Li, S. Li, Y. Han, J. Liu, J. Zhang, F. Li, Y. Wang, X. Liu, L. Yao, Eur. J. Pharmacol. 591 (2008) 252-258. In brief, nuclear extracts from untreated and RANKL-treated RAW 264.7 cells were incubated with the 32P-end-labeled 45-mer double-stranded NFκB oligonucleotide ([…] protein with 16 fM DNA) from the HIV long terminal repeat, 5′-[…]-3′(boldface indicates NFκB binding sites), for 30 min at 37° C. The DNA-protein complex formed was separated from free oligonucleotides on 6.6% native polyacrylamide gels. The dried gels were visualized with a Storm 820 molecular imager (Amersham, Piscataway, N.J., USA), and radioactive bands were quantified using a densitometer and Image Quant software ([…]).
(In general: Mobility shift assays separate free from complexed probe on a gel.)

The mark [8] stands for this setting: calebin A 5 mM, measured on day 5.

Experimental findings from patent US9539232B1, “Calebin A for osteoporosis” (priority 2016, dated 2017) are described below.

Molecules are shown by their SMILES.

On to `COc1cc(/C=C/C(=O)COC(=O)/C=C/c2ccc(O)c(OC)c2)ccc1O` [Calebin A], for which, in series [1], the “RANKL induced osteoclastogenesis in cells transfected with control plasmid” value is reported as “almost completely inhibited” and the “RANKL induced osteoclastogenesis in p65 transfected RAW 264.7 cells” value was “minimally inhibited”. Further, the “RANKL-induced ERK1/2 phosphorylation” value in the series with ERK1/2 phosphorylation is “did not inhibit the RANKL-induced activation of ERK phosphorylation”. Further, the “Number of TRAP-positive osteoclasts, time course” value in the series on RAW 264.7 cells [2] (RANKL 5 nM plus calebin A for 3, 4 or 5 days) is given as “decreased the number of TRAP-positive osteoclasts in a dose-dependent manner”. In the series on RAW 264.7 cells [2] (setting [8]), the “Osteoclast formation, calebin A added 1-2 days after RANKL stimulation” value was “substantially inhibited osteoclast formation”; the “Osteoclast formation, calebin A added at days 3 and 4 after RANKL exposure” value is “no longer prevented osteoclast formation”. Moreover, in the series with RAW 264.7 cells [2] (dose of 5 mM, all time points (3, 4, 5 days)), the “Inhibition of TRAP-positive osteoclast number at highest dose” value is “strongest inhibition”. For the same compound, in series [3], the “M-CSF-induced expression of RANK” value is reported as “downmodulate M-CSF-induced expression of RANK” and the c-Fms expression entry is reported as “no significant variation”. Also, the “MDA-MB-231 cell-induced differentiation of RAW264.7 cells into osteoclasts” value in series [4] is listed as “inhibited this differentiation”. The “IκBα phosphorylation at serines 32 and 36 induced by RANKL and ALLN co-treatment” value in the series with IκBα (50 mM calebin A 8 h, ALLN 30 min, RANKL 10 nM 15 min) is reported as “inhibited the induction of phosphorylation”. Also, the “RANKL-induced IκBα degradation (cytoplasmic, western blot)” value with IκBα (50 mM calebin A 8 h pretreatment, 10 nM RANKL) is recorded as “complete inhibition of IκBα degradation”. For the same compound, the “IκBα phosphorylation by calebin A alone” value in the series on IκBα (calebin A alone, no RANKL) is “did not induce phosphorylation of IκBα”. The “RANKL-induced IκBα phosphorylation” value with IκBα (calebin A pretreatment (8 h), 10 nM RANKL) was “phosphorylation was completely inhibited”. Moreover, in the series with RAW 264.7 cells [5], the “Proliferation of RAW 264.7 cells (MTT)” value is on record as “did not significantly affect the proliferation of RAW 264.7 cells”. For the same compound, the “RANKL-induced NFATc1, TRAP, cathepsin K and calcitonin R expression” value in series [6] (50 mM calebin A 8 h, 10 nM RANKL 24 h) was “inhibits the RANKL-induced NFATc1, TRAP, cathepsin K and calcitonin R expression”. In addition, the “RANKL-induced NFATc1 expression” value in [6] (50 mM calebin A 8 h pretreatment, 10 nM RANKL 24 h) was “abolished the RANKL-induced NFATc1 expression”. Further, the “Expression of TRAP, cathepsin K and calcitonin R with calebin A alone” value in series [6] (calebin A alone, no RANKL) was “no effect of calebin A alone”. In series [7], the “U266 cell-induced differentiation of RAW264.7 cells into osteoclasts” value is given as “A similar pattern was observed”. Further, the “NF-κB activation without RANKL (EMSA)” value in the series on NF-κB activation (50 mM calebin A without RANKL for 8 h) is recorded as “No effect on the activation of NF-κB”. In addition, the “RANKL-induced NF-κB activation (EMSA), dose dependence” value in the series on NF-κB activation (dose of 50 mM, 8 h pretreatment, RANKL 30 min) is reported as “completely suppressed NF-κB activation”. Also, the “RANKL-induced NF-κB activation (EMSA)” value in the series with NF-κB activation (pretreated with various concentrations for 8 h or 50 mM for various times, then RANKL 10 nM 30 min) is “completely abrogated RANKL-induced NF-κB activation”.
